Experiments:
[1] = Chronic toxicity, rectal suppositories: indexes of peripheral blood; details: male rats; for Basophiles / Juveniles: 1 month/2 months (one value given)
Experimental: (§1) The experiments were conducted on inbred rats. The experimental animals were selected in groups by a method of random sampling taking into account the body mass as a determining index; 24 males or 24 females for one preparation from compounds 2, 15, 23, 34, 37 investigated in one dose.
(§2) Two doses of preparations used in the experiments: 50 mg/kg and 500 mg/kg. Before the administration, the suppositories were softened by heating in a glass water bath at a temperature of 38-39° C., the soft mass was collected in tuberculin syringe in a volume of 1 ml, a needle with oliva was attached to the syringe, and the preparatory mass was introduced into the rectum of the animal for a depth of 1.5-2.0 cm. The animals of the control group were administered with sterile medical liquid paraffin in a volume corresponding to the volume of the investigated suppository. A complete course of administration of drugs to the animals was two months. A complex of laboratory diagnostic investigations was carried out one month after the beginning of the administration of the preparation to the animal—in a middle of the course (8 animals), two months after ending the course (8 animals) and three months after ending the recovery period of one month (8 animals). The mass of the body of the rats in the first month of administration of the preparation was determined weekly, and then once in two weeks. On the basis of the dynamics of an index of the mass of the animal body, the volume of preparation being administered was corrected taking into account the test dose.

[2] = Chronic toxicity, rectal suppositories: indexes of urine; details: rats, 1 month after the administration
Experimental: as §1, §2

plasma hemostasis = assay: Autocoagulation test (coagulating activity A) after intravenous administration; assay type: in vivo, rabbit
Experimental: The investigations were performed on 72 rabbits of the “Chinchilla” breed with a mass of 2.5±0.3 kg, who were administered which solutions of compounds 2, 15, 21, 37 in doses of 15, 30 and 60 mg/kg intravenously. The experiments included the thrombin-test (series No. 7300) and the coagulability-test (series No. 5000) purchased from the scientific-and-production association (SPA) “Renam”, thromboplastin (series No. 240600) and calcium chloride purchased from the SPA “MedioLab”
The static parameters of the blood and plasma coagulation (partial activated thromboplastin time, thrombin time, maximum coagulation activity (test for auto coagulation) were determined using the Behnk Electronic coagulometer (Germany). The operating principle of this instrument is based on the fact that the formed blood clot breaks the contacts of the pulse counter in the flask-pin circuit, said pin permanently oscillating in a vertical plane. The moment of formation of the clot is registered by stopping the stop watch hand.
The measurements were effected at a constant temperature of 37° C. maintained by a temperature control unit.
Compounds 2, 15, 21, 37 according to the invention at a concentration of 15, 30 and 60 mg/kg were intravenously administered to the above experimental animals and their blood samples were taken off 15, 30, 60 and 120 minutes after the administration.
Added to 0.2 ml of plasma obtained by centrifuging citrate blood at 1500 rev/min within 10 minutes was a glycosilate-calcium mixture (2.0 ml 0.222% CaCl2+0.1 ml of investigated citrate blood) 4, 6, 8, 10 minutes after the preparation of this mixture and the time of coagulation in the sample was determined.
The obtained results in seconds were translated in factors of coagulating activity A in percent, which specify the state of both the coagulating and anticoagulating parts of the blood coagulating system.

[3] = Chronic toxicity, rectal suppositories: biochemical indexes of blood serum; details: male rats, 1 month
Experimental: as §1, §2

[4] = suppositories 50 mg/kg, 1 month
[5] = suppositories 50 mg/kg, 2 months
[6] = suppositories 500 mg/kg, 1 month
[7] = suppositories 500 mg/kg, 2 months

## Nc1ccnc2c(=O)n([C@@H]3O[C@H](CO)[C@@H](O)[C@H]3O)[nH]c(=O)c12 [Compound 2, 4-amino-7-(β-D-ribofuranosile)pyrido[2,3-d]-6H-pyridazine-5,8-dione]
[1]; [4]
  Average volume of erythrocytes: 83.4 ± 1.4 Mkm^3
  Coagulation, time: 145 ± 16 s
  Eosinophiles: 3.4 ± 0.6%
  Erythrocytes: 5.60 ± 2 mln/mm^3
  Haematocrite: 47.8 ± 1.3%
  Hemoglobin: 10.5 ± 0.1 mmol/L
  Leukocyte: 16.0 ± 1.4 thousand/mm^3
  REE: 1.9 ± 0.3 mm/h
  Reticulocytes: 2.8 ± 0.2/2.8 ± 0.2%
  Stab neutrophil: 0.8 ± 0.3%
  Thrombocytes: 659 ± 26
[1]; suppositories 50 mg/kg
  Basophiles: 0%
  Juveniles: 0%
[1]; [5]
  Average volume of erythrocytes: 77.9 ± 2.1 Mkm^3
  Coagulation, time: 322 ± 18 s
  Eosinophiles: 4.2 ± 0.8%
  Erythrocytes: 6.1 ± 0.1 mln/mm^3
  Haematocrite: 47.9 ± 1.5%
  Hemoglobin: 11.1 ± 0.1 mmol/L
  Leukocyte: 19.3 ± 1.6 thousand/mm^3
  REE: 1.7 ± 0.1 mm/h
  Reticulocytes: 2.8 ± 0.2/2.8 ± 0.2%
  Stab neutrophil: 1.7 ± 0.3%
  Thrombocytes: 566 ± 20
[1]; [6]
  Average volume of erythrocytes: 85.2 ± 1.2 Mkm^3
  Coagulation, time: 149 ± 11 s
  Eosinophiles: 3.2 ± 0.9%
  Erythrocytes: 5.6 ± 0.1 mln/mm^3
  Haematocrite: 47.5 ± 1.6%
  Hemoglobin: 10.6 ± 0.1 mmol/L
  Leukocyte: 15.6 ± 0.8 thousand/mm^3
  REE: 2.1 ± 0.3 mm/h
  Reticulocytes: 2.9 ± 0.3%
  Stab neutrophil: 0.9 ± 0.2%
  Thrombocytes: 681 ± 26
[1]; suppositories 500 mg/kg
  Basophiles: 0%
  Juveniles: 0%
[1]; [7]
  Average volume of erythrocytes: 72.0 ± 2.5 Mkm^3
  Coagulation, time: 305 ± 13 s
  Eosinophiles: 4.8 ± 1.6%
  Erythrocytes: 6.5 ± 0.1 mln/mm^3
  Haematocrite: 50.3 ± 2.0%
  Hemoglobin: 12.3 ± 0.3 mmol/L
  Leukocyte: 18.6 ± 1.9 thousand/mm^3
  REE: 1.9 ± 0.1 mm/h
  Reticulocytes: 3.5 ± 0.2%
  Stab neutrophil: 1.1 ± 0.3%
  Thrombocytes: 583 ± 25
[2]; dose 50 mg/kg
  Bilirubin (index of urine): <5 Mkmol/l
  Glucose (index of urine): <5 mmol/L
  Ketone bodies (index of urine): <1 mmol/L
  Potassium (index of urine): 5.78 ± 1.7 g/L
  Protein (index of urine): 0.69 ± 0.33 g/L
  Sodium (index of urine): 1.7 ± 0.3 g/L
  Urea (index of urine): 457 ± 144 mmol/L
  Urobilinogen (index of urine): <16 Mkmol/l
  pH (index of urine): 6.1 ± 0.3
[2]; dose 500 mg/kg
  Bilirubin (index of urine): <5 Mkmol/l
  Glucose (index of urine): <5 mmol/L
  Ketone bodies (index of urine): <1 mmol/L
  Potassium (index of urine): 6.24 ± 1.8 g/L
  Protein (index of urine): 0.76 ± 0.31 g/L
  Sodium (index of urine): 1.27 ± 0.3 g/L
  Urea (index of urine): 492 ± 187 mmol/L
  Urobilinogen (index of urine): <16 Mkmol/l
  pH (index of urine): 6.2 ± 0.2
Plasma hemostasis; dose 15.0 mg/kg intravenously
  A, % after 15 minutes (coagulating activity): 80.2%
  A, % after 30 minutes (coagulating activity): 100.0%
  A, % after 60 minutes (coagulating activity): 87.4%
  A, % after 120 minutes (coagulating activity): 98.0%
Plasma hemostasis; dose 30.0 mg/kg intravenously
  A, % after 15 minutes (coagulating activity): 98.4%
  A, % after 30 minutes (coagulating activity): 71.2%
  A, % after 60 minutes (coagulating activity): 104.2%
  A, % after 120 minutes (coagulating activity): 70.9%
Plasma hemostasis; dose 60.0 mg/kg intravenously
  A, % after 15 minutes (coagulating activity): 72.3%
  A, % after 30 minutes (coagulating activity): 60.8%
  A, % after 60 minutes (coagulating activity): 62.5%
  A, % after 120 minutes (coagulating activity): 65.7%
Plasma hemostasis; doses 15.0, 30.0, 60.0 mg/kg
  effect on the coagulation activity, autocoagulation test (overall): have no effect on the coagulation activity
[3]; suppositories 50 mg/kg
  ALT: 10.84 ± 2.02 unit/l
  AST: 20.41 ± 3.06 unit/1
  Alkalinous phosphatase: 42.12 ± 4.23 unit/1
  Bilirubin: 44.38 ± 4.12
  Cholesterol: 2.77 ± 0.71 mmol/L
  Creatinine: 47.38 ± 3.26 mkmol/l
  Glucose: 9.85 ± 0.37 mM
  Total protein: 87.34 ± 5.56 g/L
  Urea: 11.02 ± 0.73
[3]; suppositories 500 mg/kg
  ALT: 11.23 ± 1.70 unit/l
  AST: 20.13 ± 2.95 unit/1
  Alkalinous phosphatase: 43.4 ± 2.12 unit/1
  Bilirubin: 42.56 ± 7.56
  Cholesterol: 2.96 ± 0.52 mmol/L
  Creatinine: 49.87 ± 8.12 mkmol/l
  Glucose: 10.2 ± 0.74 mM
  Total protein: 70.84 ± 7.47 g/L
  Urea: 11.30 ± 0.80

Reference: patent publication US20070166547A1, “Use of a layer consisting of hydrophobic linear, or two-dimensional polycyclic aromatics as a barrier layer or an encapsulation and electric components constructed with a layer of this type and comprising organic polymers” (priority 2003, published 2007)
